Data published in patent publication US6403554B2, “Polyunsaturated fatty acid derivatives and their use” (Ardenia Investments Ltd., priority 1998, dated 2002).

Legend:
[1] = system: antibody-forming cells (AFC) in the spleen; experiment: Humoral immune response: counting antibody-forming cells (AFC) in the spleen according to Cunningham, mice immunised with sheep erythrocytes; assay type: in vivo, C57B1/6 mice; conditions: for Amount of antibody-forming cells per 10^6 spleen cells, M ± SEM (relative amount of AFC) / Amount of antibody-forming cells per spleen, M ± SEM (total AFC amount): 5-th day after injection, female mice; for Effect, % on AFC per 10^6 spleen cells / Effect, % on AFC per spleen: versus animals immunised only with sheep erythrocytes; for Dose at which immunostimulating effect in vivo is displayed (micelle form): compound alone
Method: (§1) 0.15 ml of compound 10 was administered intravenously to 6 mice females of CS7B1/6 line (weight 18-22 g) in doses of 45.5, 91 and 136.5 μg of compound 10 per capita for each testing group according to the dose. Simultaneously, a suspension of 5·10^7 sheep erythrocytes was injected intraperitoneally (0.2 ml per capita). Mice in the control group were injected intravenously with equal volume of saline. The effects of compound 10 on humoral immune response were analyzed both by counting the quantity of AFC in the spleen according to Cunningham (per 10^6 spleen cells and per spleen) and estimating the titers of hemagglutining antibodies in serum of the animals (Cunningham A. J., Nature, 1965, Vol.207, No 5001. P.1106-1107), while the titers of hemagglutinating antibodies were evaluated according to litterature (Evans J. et al., Cell, 1974; Vol 3., p.153-158, Feizi T., Menger E., Transfusion, 1970, Vol. 10, p.33-35,).
(§2) 0.15 ml of compound 11 was administered intravenously to 6 female mice of the C57B1/6 line (weight 18-22 g) in doses of 45.5, 91 and 136.5 μg of compound 11 per capita for each testing group according to the dose. Simultaneously, a suspension of 5·10^7 sheep erytrocytes was injected intraperitoneally (0.2 ml per capita). Mice in the control group were injected intravenously with an equal volume of saline. The effects of compound 11 on humoral immune response was analysed both by counting the quantity of AFC in the spleen according to Cunningham (per 10^6 spleen cells and per spleen) and estimating the titers of hemagglutining antibodies in serum of the animals.
as §2, with “12” for “11”, “erythrocytes” for “erytrocytes”, “analyzed” for “analysed”
as §2, with “compound 8” for “compound 11”, “sheep erythrocytes” for “sheep erytrocytes”, “Mice of” for “Mice in”, “response were analyzed” for “response was analysed”
as §2, with “compound 3” for “compound 11”, “Mice of” for “Mice in”, “with” for “with an”, “response were” for “response was”
(§3) 0.15 ml of compound 4 was administered intravenously to 6 female mice of the C57B1/6 line (weight 18-22 g) in a doses of 45.5, 91 and 136.5 μg of compound 4 per capita for each testing group according to the dose. Simultaneously, a suspension of 5·10^7 sheep erythrocytes was injected intraperitoneally (0.2 ml per capita). […]

[2] = system: hemagglutinating antibodies in serum; experiment: Humoral immune response: titers of hemagglutinating antibodies in serum; assay type: in vivo, C57B1/6 mice; conditions: for Amount of hemagglutinins: serum, female mice; for Effect, % on hemagglutinins: versus control
Method: as §1, §2
as §2, with “12” for “11”, “erythrocytes” for “erytrocytes”, “analyzed” for “analysed”
as §2, with “compound 8” for “compound 11”, “sheep erythrocytes” for “sheep erytrocytes”, “Mice of” for “Mice in”, “response were analyzed” for “response was analysed”
as §2, with “compound 3” for “compound 11”, “Mice of” for “Mice in”, “with” for “with an”, “response were” for “response was”
as §3

Row | SMILES | Amount of antibody-forming cells per 10^6 spleen cells, M ± SEM (relative amount of AFC) ([1]; 45.5 μg/mouse i.v.) | Amount of antibody-forming cells per spleen, M ± SEM (total AFC amount) ([1]; 45.5 μg/mouse i.v.) | Effect, % on AFC per 10^6 spleen cells ([1]; 45.5 μg/mouse i.v.) | Effect, % on AFC per spleen ([1]; 45.5 μg/mouse i.v.) | Amount of antibody-forming cells per 10^6 spleen cells, M ± SEM (relative amount of AFC) ([1]; 91 μg/mouse i.v.) | Amount of antibody-forming cells per spleen, M ± SEM (total AFC amount) ([1]; 91 μg/mouse i.v.) | Amount of antibody-forming cells per 10^6 spleen cells, M ± SEM (relative amount of AFC) ([1]; 136.5 μg/mouse i.v.) | Amount of antibody-forming cells per spleen, M ± SEM (total AFC amount) ([1]; 136.5 μg/mouse i.v.) | Dose at which immunostimulating effect in vivo is displayed (micelle form) [1] [μg/mouse] | Amount of hemagglutinins ([2]; 45.5 μg/mouse i.v.) [Log2 T] | Effect, % on hemagglutinins ([2]; 45.5 μg/mouse i.v.) | Amount of hemagglutinins ([2]; 91 μg/mouse i.v.) [Log2 T] | Effect, % on hemagglutinins ([2]; 91 μg/mouse i.v.) | Amount of hemagglutinins ([2]; 136.5 μg/mouse i.v.) [Log2 T] | Effect, % on hemagglutinins ([2]; 136.5 μg/mouse i.v.) | Effect, % on AFC per 10^6 spleen cells ([1]; 91 μg/mouse i.v.) | Effect, % on AFC per spleen ([1]; 91 μg/mouse i.v.) | immunostimulating action ([1]; dose of 136.5 μg/mouse) | Immunogenic activity ([1]; doses of 45.5 and 91 μg/mouse) | other results
1 | CC1=C(/C=C/C(C)=C/C=C/C(C)=C/C(=O)N[C@@H](Cc2ccc(OP(=O)(O)O)cc2)C(=O)O)C(C)(C)CCC1 (stereo in doubt) [Compound 4, N-(all-trans-retinoyl)-o-phospho-L-tyrosine] | 405.0±47.9 | 55.0±6.7 × 10^3 | −0.3 p >0.05% | −8.9 p > 0.05% | 692.9±44.8 | 87.6±4.3 × 10^3 | 1354.3±99.9 | 138.9±10.0 × 10^3 | 91 | 6.0 ± 0.3 | −3.2 p > 0.05% | 6.5 ± 0.4 | +4.8 p > 0.05% | 7.5±0.2 | – | – | – | – | – | Immunogenic activity ([1]; dose of 45.5 μg/mouse): no immunogenic activity; immunostimulating action ([1]; doses of 91 and 136.5 μg/mouse): high immunostimulating action
2 | CC1=C(/C=C/C(C)=C/C=C/C(C)=C\C(=O)NCCOP(=O)(O)O)C(C)(C)CCC1 [Compound 1a, N-(13-cis-retinoyl)-o-phospho-2-aminoethanol] | – | – | – | – | – | – | – | – | 91 | 7.6 ± 0.3 | −1,3 p > 0.05% | 7.6 ± 0.2 | −1,3 p > 0.05% | 8.2 ± 0.4 | +6,5 p > 0.05% | – | – | – | – | –
3 | CC/C=C\C/C=C\C/C=C\C/C=C\C/C=C\C/C=C\CCC(=O)N[C@@H](Cc1ccc(OP(=O)(O)O)cc1)C(=O)O [Compound 12, N-docosahexaenoyl-o-phospho-L-tyrosine] | 263.8±23.6 | 31.8±2.8 × 10^3 | −9.4 p >0.05% | −9.1 p >0.05% | 307.8±30.9 | 40.2±2.7 × 10^3 | 682.6±33.3 | 69.6±6.0 × 10^3 | – | 7.4 ± 0.3 | +2.8 p >0.05% | 7.4 ± 0.3 | +2.8 p > 0.05% | 7.8 ± 0.3 | +7.7 p > 0.05% | +5.7 p > 0.05% | +14.9 p > 0.05% | high immunostimulating action | no immunogenic activity | –
4 | CC/C=C\C/C=C\C/C=C\CCCCCCCC(=O)NCCOP(=O)(O)O [Compound 17, N-linolenoyl-o-phospho-2-aminoethanol] | 457.3±40.7 | 51.1±4.4 × 10^3 | −3.0 p > 0.05% | −7.4 p > 0.05% | 523.8±45.3 | 63.5±5.1 × 10^3 | 619.6±38.9 | 71.6±4.7 × 10^3 | – | – | – | – | +2.6 p > 0.05% | – | +2.6 p > 0.05% | +11.1 p > 0.05% | +15.0 p > 0.05% | marked immunostimulating action | no immunogenic activity | –
5 | CC/C=C\C/C=C\C/C=C\CCCCCCCC(=O)N[C@H](C(=O)O)[C@@H](C)OP(=O)(O)O [Compound 19, N-linolenoyl-o-phospho-L-threonine] | – | – | – | – | – | – | – | – | – | 8.1 ± 0.3 | – | 8.3 ± 0.4 | – | 8.5 ± 0.3 | – | – | – | – | – | –
6 | CC/C=C\C/C=C\C/C=C\CCCCCCCC(=O)N[C@@H](Cc1ccc(OP(=O)(O)O)cc1)C(=O)O [Compound 20, N-linolenoyl-o-phospho-L-tyrosine] | 512.8±46.2 | 46.4±4.8 × 10^3 | −9.8 p > 0.05% | −7.4 p > 0.05% | 634.5±51.7 | 55.7±5.6 × 10^3 | 845.1±43.1 | 75.8±7.7 × 10^3 | – | 7.4 ± 0.2 | – | 7.5 ± 0.3 | +1.4 p > 0.05% | 7.6 ± 0.4 | +2.7 p > 0.05% | +11.6 p > 0.05% | +11.2 p > 0.05% | marked immunostimulating action | no immunogenic activity | –
